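Following 48 hours of exposure in 96-well plates, responses at five concentrations were used to interpolate endpoints linearly. TGI is the concentration that stops growth completely.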
How the values were obtained:
Test in all cases: NCI-60 cell line screen, 48 h
BT-549 breast = tested on: BT-549 breast
HL-60(TB) leukemia = tested on: HL-60(TB) leukemia
HOP-92 NSCLC = tested on: HOP-92 NSCLC
IGROV1 ovarian = tested on: IGROV1 ovarian
M14 melanoma = tested on: M14 melanoma
MCF7 breast = tested on: MCF7 breast
MDA-MB-231 breast = tested on: MDA-MB-231 breast
NCI-H226 lung = tested on: NCI-H226 lung
NCI-H460 lung = tested on: NCI-H460 lung
NCI/ADR-RES ovarian = tested on: NCI/ADR-RES ovarian
OVCAR-3 ovarian = tested on: OVCAR-3 ovarian
OVCAR-4 ovarian = tested on: OVCAR-4 ovarian
OVCAR-8 ovarian = tested on: OVCAR-8 ovarian
RPMI-8226 leukemia = tested on: RPMI-8226 leukemia
SK-MEL-2 melanoma = tested on: SK-MEL-2 melanoma
SN12C renal = tested on: SN12C renal
SR leukemia = tested on: SR leukemia
SW-620 colon = tested on: SW-620 colon
UACC-62 melanoma = tested on: UACC-62 melanoma
SK-OV-3 ovarian = tested on: SK-OV-3 ovarian

SMILES | TGI (BT-549 breast) [µM] | TGI (HL-60(TB) leukemia) [µM] | TGI (HOP-92 NSCLC) [µM] | TGI (IGROV1 ovarian) [µM] | TGI (M14 melanoma) [µM] | TGI (MCF7 breast) [µM] | TGI (MDA-MB-231 breast) [µM] | TGI (NCI-H226 lung) [µM] | TGI (NCI-H460 lung) [µM] | TGI (NCI/ADR-RES ovarian) [µM] | TGI (OVCAR-3 ovarian) [µM] | TGI (OVCAR-4 ovarian) [µM] | TGI (OVCAR-8 ovarian) [µM] | TGI (RPMI-8226 leukemia) [µM] | TGI (SK-MEL-2 melanoma) [µM] | TGI (SN12C renal) [µM] | TGI (SR leukemia) [µM] | TGI (SW-620 colon) [µM] | TGI (UACC-62 melanoma) [µM] | TGI (SK-OV-3 ovarian) [µM]
CCOC(=O)C1C(=O)CC(C)(O)C(C(=O)OCC)C1c1ccc(OC)cc1 (stereo not given) | > 100 | > 100 | > 100 | > 100 | > 100 | > 100 | > 100 | > 100 | > 100 | > 100 | > 100 | > 100 | > 100 | > 100 | > 100 | > 100 | > 100 | > 100 | > 100 | 
COc1cc2c(cc1OC)C(=O)/C(=C/c1ccccc1)C2 | > 100 | 50 | > 100 | > 100 | > 100 | > 100 | > 100 | > 100 | > 100 | > 100 | > 100 | > 100 | > 100 | 71.6 | > 100 | > 100 | > 100 | > 100 | > 67.7 | > 100
Cc1ccc2nc(Cl)c(/C=N/N3C(=O)/C(=C/Cc4ccco4)N=C3c3ccccc3)cc2c1 | > 90.9 | 55.9 | 66.5 | 53.9 | 73.9 | > 93.9 | > 100 | > 100 | 75.9 | > 90.5 | > 100 | > 100 | > 68.2 | 61.8 | > 100 | > 69.6 | > 100 | > 100 | > 100 | > 100
COc1cc(C2c3cc4c(cc3OC(O)C2C)OCO4)cc(OC)c1O (stereo not given) | > 100 | 20.2 | > 94.3 | > 100 | > 60 | > 100 | 89.3 | 64.3 | > 70.5 | 23.4 | 27.4 | > 100 | > 100 | > 100 | > 100 | > 75.3 | > 100 | > 100 | 52.4 | 55.7
CCC(CCCCC1CC[C@H]2CC(=O)C[C@@H]12)OC (stereo not given in full) | > 100 | > 100 | > 100 | > 100 | > 100 | > 100 | > 100 | > 100 | > 100 | > 100 | > 100 | > 100 | > 100 | > 100 | > 100 | > 100 | > 100 | > 100 | > 100 | > 100
Cc1ccc(S(=O)(=O)N/N=C2/CC[C@H](C(C)(C)C)C[C@@H]2C)cc1 | 29.8 | > 100 | 33.4 | 30 | 26.6 | 32.8 | 43.7 | 28.3 | 32.2 | 31.2 | 25.2 | 20 | 29.9 | > 100 | 32.4 | 30.4 | > 100 | 50.7 | 31.4 | 36.6
O=c1[nH][nH]c(=S)c(=O)[nH]1 | > 100 | > 100 | > 100 | > 100 | > 100 | > 100 | > 100 | > 100 | > 100 | > 100 | > 100 | > 100 | > 100 | > 100 | > 100 | > 100 | > 100 | > 100 | > 100 | > 100
CC(=O)OCC(OC(C)=O)C(OC(C)=O)C(OC(C)=O)C(/C=N\Nc1nc2ccccc2c(=O)[nH]1)OC(C)=O (stereo not given) | > 100 | > 100 | > 100 |  | > 100 | > 100 | > 100 | > 100 | > 100 | > 100 | > 100 |  | > 100 | > 100 | > 100 | > 100 | > 100 | > 100 | > 100 | > 100
CC1(c2nc3cc(Cl)c(Cl)cc3[nH]2)CCC(C(=O)O)C(C)(C)O1 (stereo not given) | > 100 | > 100 | > 100 | > 100 | > 100 | > 100 | > 100 | > 100 |  | > 100 | > 100 | > 100 | > 100 | > 100 | > 100 | > 100 | > 100 | > 100 | > 100 | > 100
Clc1ccc(-c2cc(-c3nc4ccccc4[nH]3)no2)cc1 | 45.5 | 37.2 | 66.7 | 62.1 | 34.6 | 31 | 35.5 | 79.9 | 32.6 | 73.5 | 35.7 | 51.4 | 67.4 | 73.1 | 34.7 | 35 | 59.7 | 46.5 | 28.3 | 35.8
O=C(NO)c1ccc(OCc2ccccc2)cc1 | > 100 | > 100 | > 100 | > 100 | > 100 | > 100 | > 100 | > 100 | > 100 | 32.1 | > 100 | 75 | 28.7 | > 100 | > 100 | > 100 | 90.9 | > 100 | 36.5 | > 100
CCOC(=O)c1nc2ccc(C(F)(F)F)cc2nc1Nc1ccc(OC)c(OC)c1 | > 100 | > 100 | > 100 | > 100 | > 100 | > 100 | > 100 | > 100 | > 100 | > 100 | > 100 |  | > 100 | > 100 |  | > 100 | > 100 | > 100 | > 100 | > 100
CN(C)CC1CN(C(=O)Nc2ccccc2)C(=N)O1 (stereo not given) | > 100 | > 100 | > 100 | > 100 | > 100 | > 100 | > 100 | > 100 | > 100 | > 100 | > 100 | > 100 | > 100 | > 100 | > 100 | > 100 | > 100 | > 100 | > 100 | > 100
C[C@]12CCC(=O)C=C1CC[C@@H]1[C@@H]2CC[C@]2(C)C(=O)/C(=C\c3ccccc3)C[C@@H]12 | 72.6 | > 50.5 | > 86.8 | > 100 | > 66.2 | > 56.1 | > 100 | 33.5 | > 66 | 72.7 | > 77.1 | > 100 | > 100 | > 26.1 | 46.1 | 31.9 | > 49.2 | > 56.9 | > 66.2 | > 100
CC(C)(Cc1ccccc1)Cc1cc(O)ccc1O | 74.1 | 4.8 | 36.5 | > 100 | 37.4 | 86.5 | 39.2 | 97.8 | 37.4 | 42.9 | 25.3 | 91.9 | 40.7 |  |  | 41.3 | 27.7 | 49.6 | 61.8 | 71
O=C1c2ccc3ccccc3c2CCC1N1CCCCC1 (stereo not given) | 74.7 | 49.6 | 32.2 | 29.5 |  | > 100 | 30.6 | 31.4 | 50.4 | 46.3 | 28.8 | 30.2 | 37.3 |  | 44.4 | 29 | 36.6 | 34.5 | 30.3 | 54.4
COc1cc(CNC(=O)CCCCCCCCCCSSCCCCCCCCCCC(=O)NCc2ccc(O)c(OC)c2)ccc1O | > 10 | > 10 | > 10 | > 10 | > 10 | > 10 | > 10 | > 10 | > 10 | > 10 | > 10 | > 10 | > 10 | > 10 | > 10 | > 10 | > 10 | > 10 | > 10 | > 10
Nc1nc(Cl)cc(NCC2(CO)CC(Cc3ccccc3)C2)n1 (stereo not given) | > 80.5 | > 46.4 | > 88.6 | > 100 | 37.1 | > 77.7 | > 100 | > 91.1 | > 100 | 65.5 | > 100 | > 100 | > 100 | > 62.9 | > 72.5 | > 100 | > 56.1 | > 100 | > 100 | > 100
O=C1/C(=C/c2ccc(O)cc2)CCc2ccccc21 | 41.4 | 36.7 | 91.1 | > 76 | 36.6 | 82.4 | 43.4 | 57.8 | 72.4 | 44.8 | 52.7 | > 74.5 | 73.5 | 34.9 | 36 | 38.1 | 16 | 40.1 | 46.2 | > 89.4

Reference: PubChem BioAssay (NCI)
